Data: US12617797B2, “Substituted pyrazolo [1,5-a]pyrimidines having multimodal activity against pain” (ESTEVE PHARMACEUTICALS, S.A., priority 2020, dated 2026)

Experiments:
[1] = target: Human α2δ-1 subunit of Cav2.2 calcium channel (Homo sapiens, UniProt P54289); experiment: Human α2δ-1 subunit of Cav2.2 calcium channel assay ([3H]-gabapentin binding); conditions: binding to the α2δ-1 subunit of voltage-gated calcium channels expressed as Ki; + also covers inhibition between 1% and 50%
Summary of the method: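 Displacement of 15 nM [3H]-gabapentin from human α2δ-1-enriched membranes (Hepes-KOH 10 mM, pH 7.4; 27 °C, 60 min) read by filter binding and radioactivity counting. Values are single-point % inhibition (1 or 10 μM) or five-point Ki; 10 μM pregabalin sets NSB.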

[2] = target: T1, Human σ1 receptor (Homo sapiens, UniProt Q99720); experiment: Human σ1 receptor radioligand assay ([3H](+)-pentazocine binding, transfected HEK-293 membranes); conditions: binding to σ1 receptor expressed as Ki; + also covers inhibition between 1% and 50%; read-out: σ-1 binding
T1 construct: expressed in transfected cells; host or cells: HEK-293
Summary of the method: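 Ki was derived from five test concentrations, or % inhibition was measured at a single 1 or 10 μM dose, against 5 nM [3H](+)-pentazocine. Incubation was 120 min at 37° C in 50 mM Tris-HCl pH 8 with 7 μg HEK-293 membranes, and 10 μM haloperidol set non-specific binding. Bound radioactivity was counted after filtration.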

T1 sequence (Q99720 whole entry): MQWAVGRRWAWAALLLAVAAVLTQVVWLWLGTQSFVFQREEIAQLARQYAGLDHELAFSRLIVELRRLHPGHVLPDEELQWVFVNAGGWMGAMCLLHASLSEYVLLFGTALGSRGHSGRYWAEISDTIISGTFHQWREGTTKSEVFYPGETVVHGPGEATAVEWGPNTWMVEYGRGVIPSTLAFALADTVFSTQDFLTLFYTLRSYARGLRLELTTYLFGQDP
Sequence of Human α2δ-1 subunit of Cav2.2 calcium channel (P54289 25-1103): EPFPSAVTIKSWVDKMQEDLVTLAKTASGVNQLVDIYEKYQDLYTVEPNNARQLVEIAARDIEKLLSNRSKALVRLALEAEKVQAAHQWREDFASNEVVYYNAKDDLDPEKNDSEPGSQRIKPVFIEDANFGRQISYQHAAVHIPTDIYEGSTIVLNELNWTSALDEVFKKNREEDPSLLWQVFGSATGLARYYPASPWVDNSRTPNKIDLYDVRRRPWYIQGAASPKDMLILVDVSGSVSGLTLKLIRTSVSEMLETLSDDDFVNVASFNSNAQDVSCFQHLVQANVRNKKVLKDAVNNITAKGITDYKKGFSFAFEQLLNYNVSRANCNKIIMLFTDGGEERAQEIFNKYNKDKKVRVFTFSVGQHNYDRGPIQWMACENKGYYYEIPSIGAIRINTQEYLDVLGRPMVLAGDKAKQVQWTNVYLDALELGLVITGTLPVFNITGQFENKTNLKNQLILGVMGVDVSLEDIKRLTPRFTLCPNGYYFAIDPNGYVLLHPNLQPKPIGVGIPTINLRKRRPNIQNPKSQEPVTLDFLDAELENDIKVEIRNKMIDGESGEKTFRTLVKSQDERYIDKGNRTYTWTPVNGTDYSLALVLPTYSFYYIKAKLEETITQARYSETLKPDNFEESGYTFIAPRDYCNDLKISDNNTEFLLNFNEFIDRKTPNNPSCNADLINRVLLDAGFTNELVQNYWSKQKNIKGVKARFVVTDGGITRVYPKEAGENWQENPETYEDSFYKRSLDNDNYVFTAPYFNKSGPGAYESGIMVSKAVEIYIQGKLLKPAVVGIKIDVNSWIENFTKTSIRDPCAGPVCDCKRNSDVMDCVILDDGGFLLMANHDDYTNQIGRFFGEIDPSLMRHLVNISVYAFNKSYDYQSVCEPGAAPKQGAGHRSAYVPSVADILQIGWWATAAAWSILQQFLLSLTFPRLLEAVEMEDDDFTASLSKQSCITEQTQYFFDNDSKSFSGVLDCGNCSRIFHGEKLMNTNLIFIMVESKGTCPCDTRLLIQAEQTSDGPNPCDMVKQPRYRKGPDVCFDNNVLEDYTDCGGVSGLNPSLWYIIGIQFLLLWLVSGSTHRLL

| Structure (SMILES) | Ki [1] | Ki [2] |
| --- | --- | --- |
| CCc1nn2c(C3CCCN(Cc4ccccc4)C3)ccnc2c1Br (stereo not drawn) [Example 11, 7-(1-Benzylpiperidin-3-yl)-3-bromo-2-ethylpyrazolo[1,5-a]pyrimidine] | 500 to 5000 nM | < 500 nM |
| Cc1nn2c(C3CCCN(Cc4ccccc4)C3)ccnc2c1-c1ccncc1 (stereo not drawn) [Example 42, 7-(1-Benzylpiperidin-3-yl)-2-methyl-3-(pyridin-4-yl)pyrazolo[1,5-a]pyrimidine] | 500 to 5000 nM | > 1000 nM |
| Cc1nn2c(C3CCCN(Cc4ccc(Cl)cc4)C3)ccnc2c1CN1CCS(=O)(=O)CC1 (stereo not drawn) [Example 168, 4-((7-(1-(4-Chlorobenzyl)piperidin-3-yl)-2-methylpyrazolo[1,5-a]pyrimidin-3-yl)methyl)thiomorpholine 1,1-dioxide] | 500 to 5000 nM | 500 to 1000 nM |
| CN(C)Cc1cc2nccc(C3CCCN(Cc4ccccc4)C3)n2n1 (stereo not drawn) [Example 92, 1-(7-(1-Benzylpiperidin-3-yl)pyrazolo[1,5-a]pyrimidin-2-yl)-N,N-dimethylmethanamine] | 500 to 5000 nM | > 1000 nM |
| CCCCN1CCCC(c2ccnc3cc(C)nn23)C1 (stereo not drawn) [Example 64, 7-(1-Butylpiperidin-3-yl)-2-methylpyrazolo[1,5-a]pyrimidine] | > 5000 nM | < 500 nM |
| Cc1nn2c(C3CCCN(Cc4ccccc4)C3)ccnc2c1CNCc1ccccc1 (stereo not drawn) [Example 98, N-Benzyl-1-(7-(1-benzylpiperidin-3-yl)-2-methylpyrazolo[1,5-a]pyrimidin-3-yl)methanamine] | 500 to 5000 nM | < 500 nM |
| Cc1nn2c(C3CCCN(Cc4ccccc4)C3)ccnc2c1-c1ccccc1F (stereo not drawn) [Example 48, 7-(1-Benzylpiperidin-3-yl)-3-(2-fluorophenyl)-2-methylpyrazolo[1,5-a]pyrimidine] | > 5000 nM | > 1000 nM |
| CCc1cc2nccc(C3CCCN(Cc4ccccc4)C3)n2n1 (stereo not drawn) [Example 4, 7-(1-Benzylpiperidin-3-yl)-2-ethylpyrazolo[1,5-a]pyrimidine] | 500 to 5000 nM | < 500 nM |
| Cc1nn2c(C3CCCN(Cc4ccc(Cl)cc4)C3)ccnc2c1CNCCC(C)C (stereo not drawn) [Example 161, N-((7-(1-(4-Chlorobenzyl)piperidin-3-yl)-2-methylpyrazolo[1,5-a]pyrimidin-3-yl)methyl)-3-methylbutan-1-amine] | 500 to 5000 nM | < 500 nM |
| Cc1nn2c(C3CCCN(Cc4ccc(Cl)cc4)C3)ccnc2c1CNCc1cccs1 (stereo not drawn) [Example 149, 1-(7-(1-(4-Chlorobenzyl)piperidin-3-yl)-2-methylpyrazolo[1,5-a]pyrimidin-3-yl)-N-(thiophen-2-ylmethyl)methanamine] | 500 to 5000 nM | < 500 nM |
| c1ccc(CN2CCCC(c3ccnc4cc(-c5cnsc5)nn34)C2)cc1 (stereo not drawn) [Example 20, 4-(7-(1-Benzylpiperidin-3-yl)pyrazolo[1,5-a]pyrimidin-2-yl)isothiazole] | 500 to 5000 nM | > 1000 nM |
| Cc1nn2c(C3CCCN(Cc4ccccc4)C3)ccnc2c1-c1ccncc1F (stereo not drawn) [Example 52, 7-(1-Benzylpiperidin-3-yl)-3-(3-fluoropyridin-4-yl)-2-methylpyrazolo[1,5-a]pyrimidine] | 500 to 5000 nM | > 1000 nM |
| COc1cnccc1-c1c(C)nn2c(C3CCCN(Cc4ccccc4)C3)ccnc12 (stereo not drawn) [Example 57, 7-(1-Benzylpiperidin-3-yl)-3-(3-methoxypyridin-4-yl)-2-methylpyrazolo[1,5-a]pyrimidine] | 500 to 5000 nM | > 1000 nM |
| COc1ccc(CCNCc2c(C)nn3c(C4CCCN(Cc5ccc(Cl)cc5)C4)ccnc23)cc1 (stereo not drawn) [Example 154, N-((7-(1-(4-Chlorobenzyl)piperidin-3-yl)-2-methylpyrazolo[1,5-a]pyrimidin-3-yl)methyl)-2-(4-methoxyphenyl)ethan-1-amine] | 500 to 5000 nM | 500 to 1000 nM |
| Cc1nn2c(C3CCCN(Cc4ccc(Cl)cc4)C3)ccnc2c1-c1ccnc(N)n1 (stereo not drawn) [Example 140, 4-(7-(1-(4-Chlorobenzyl)piperidin-3-yl)-2-methylpyrazolo[1,5-a]pyrimidin-3-yl)pyrimidin-2-amine] | 500 to 5000 nM | > 1000 nM |

Continued, values first:

| Ki [1] | Ki [2] | Structure (SMILES) |
| --- | --- | --- |
| < 500 nM | < 500 nM | CC(=O)N1CCC(CNCc2c(C)nn3c([C@H]4CCCN(Cc5ccc(Cl)cc5)C4)ccnc23)CC1 [Example 193, (S)-1-(4-((((7-(1-(4-Chlorobenzyl)piperidin-3-yl)-2-methylpyrazolo[1,5-a]pyrimidin-3-yl)methyl)amino)methyl)piperidin-1-yl)ethan-1-one] |
| < 500 nM | < 500 nM | CCc1nn2c(C3CCCN(Cc4ccc(Cl)cc4)C3)ccnc2c1CNCC1CCOCC1 (stereo not drawn) [Example 187, 1-(7-(1-(4-Chlorobenzyl)piperidin-3-yl)-2-ethylpyrazolo[1,5-a]pyrimidin-3-yl)-N-((tetrahydro-2H-pyran-4-yl)methyl)methanamine] |
| < 500 nM | < 500 nM | COCC1CCN(Cc2c(C)nn3c(C4CCCN(Cc5ccc(Cl)cc5)C4)ccnc23)CC1 (stereo not drawn) [Example 170, 7-(1-(4-Chlorobenzyl)piperidin-3-yl)-3-((4-(methoxymethyl)piperidin-1-yl)methyl)-2-methylpyrazolo[1,5-a]pyrimidine] |
| < 500 nM | < 500 nM | Cc1nn2c([C@@H]3CCCN(Cc4ccc(Cl)cc4)C3)ccnc2c1CNC[C@@H]1CCOC(C)(C)C1 (racemic) [Example 221, (+/−)-1-(7-((R/S)-1-(4-Chlorobenzyl)piperidin-3-yl)-2-methylpyrazolo[1,5-a]pyrimidin-3-yl)-N—(((R/S)-2,2-dimethyltetrahydro-2H-pyran-4-yl)methyl)methanamine] |
| < 500 nM | < 500 nM | Cc1nn2c([C@H]3CCCN(Cc4ccc(Cl)cc4)C3)ccnc2c1CNCC1CCOCC1 [Example 199, (S)-1-(7-(1-(4-Chlorobenzyl)piperidin-3-yl)-2-methylpyrazolo[1,5-a]pyrimidin-3-yl)-N-((tetrahydro-2H-pyran-4-yl)methyl)methanamine] |
| > 5000 nM | > 1000 nM | Cc1nn2c(C3CCCN(Cc4ccc(Cl)cc4)C3)ccnc2c1CN1CCN(S(C)(=O)=O)CC1 (stereo not drawn) [Example 175, 7-(1-(4-Chlorobenzyl)piperidin-3-yl)-2-methyl-3-((4-(methylsulfonyl)piperazin-1-yl)methyl)pyrazolo[1,5-a]pyrimidine] |
| < 500 nM | < 500 nM | COc1nn2c(C3CCCN(Cc4ccc(Cl)cc4)C3)ccnc2c1CNCC1CCOCC1 (stereo not drawn) [Example 189, 1-(7-(1-(4-Chlorobenzyl)piperidin-3-yl)-2-methoxypyrazolo[1,5-a]pyrimidin-3-yl)-N-((tetrahydro-2H-pyran-4-yl)methyl)methanamine] |
| > 5000 nM | < 500 nM | Cc1nn2c(C3CCCCN(Cc4ccc(Cl)cc4)C3)ccnc2c1CNCC1CCOCC1 (stereo not drawn) [Example 253, 1-(7-(1-(4-Chlorobenzyl)azepan-3-yl)-2-methylpyrazolo[1,5-a]pyrimidin-3-yl)-N-((tetrahydro-2H-pyran-4-yl)methyl)methanamine] |
| > 5000 nM | 500 to 1000 nM | Cc1nn2c(C3CCCN(Cc4ccccc4)C3)ccnc2c1CN(CC1C[C@@H](C)O[C@@H](C)C1)C(C)C (stereo partly drawn) [Example 233, N-((7-(1-Benzylpiperidin-3-yl)-2-methylpyrazolo[1,5-a]pyrimidin-3-yl)methyl)-N-(((2R,6S)-2,6-dimethyltetrahydro-2H-pyran-4-yl)methyl)propan-2-amine] |
| > 5000 nM | < 500 nM | Cc1nn2c(C3CCCN(Cc4ccc(Cl)cc4)C3)ccnc2c1CNCC1CCOC1 (racemic) [Example 201, (+/−)-1-(7-((R/S)-1-(4-Chlorobenzyl)piperidin-3-yl)-2-methylpyrazolo[1,5-a]pyrimidin-3-yl)-N—(((S/R)-tetrahydrofuran-3-yl)methyl)methanamine] |
| > 5000 nM | < 500 nM | Cc1nn2c([C@@H]3CCCN(Cc4ccc(Cl)cc4)C3)ccnc2c1CNCC1CCOCC1 [Example 200, (R)-1-(7-(1-(4-chlorobenzyl)piperidin-3-yl)-2-methylpyrazolo[1,5-a]pyrimidin-3-yl)-N-((tetrahydro-2H-pyran-4-yl)methyl)methanamine] |
| > 5000 nM | < 500 nM | Cc1nn2c([C@@H]3CCCN(Cc4cccc(C#N)c4)C3)ccnc2c1CNCC1CCOCC1 [Example 209, (R)-3-((3-(2-methyl-3-((((tetrahydro-2H-pyran-4-yl)methyl)amino)methyl)pyrazolo[1,5-a]pyrimidin-7-yl)piperidin-1-yl)methyl)benzonitrile] |
